Reference: US20230066011A1, “PYRROLOPYRIMIDINE DERIVATIVE, AND PHARMACEUTICAL COMPOSITION FOR PREVENTING OR TREATING PROTEIN KINASE-RELATED DISEASE COMPRISING SAME AS ACTIVE INGREDIENT” (VORONOI CO., LTD., priority 2019, published 2023)

Assays:
[1] = target: LRRK2 (G2019S) (Homo sapiens, UniProt Q5S007, G2019S); test: Kinase HotSpot service (Reaction Biology Corporation), LRRK2 (G2019S); assay type: biochemical; design: purchased DiscoverX Corp. (ScanMAX Kinase analysis panel, service); conditions: ATP 10 uM, read-out: LRRK2 (G2019S) IC50 (values indicated by *)
Sequence of LRRK2 (G2019S) (Q5S007 whole entry G2019S): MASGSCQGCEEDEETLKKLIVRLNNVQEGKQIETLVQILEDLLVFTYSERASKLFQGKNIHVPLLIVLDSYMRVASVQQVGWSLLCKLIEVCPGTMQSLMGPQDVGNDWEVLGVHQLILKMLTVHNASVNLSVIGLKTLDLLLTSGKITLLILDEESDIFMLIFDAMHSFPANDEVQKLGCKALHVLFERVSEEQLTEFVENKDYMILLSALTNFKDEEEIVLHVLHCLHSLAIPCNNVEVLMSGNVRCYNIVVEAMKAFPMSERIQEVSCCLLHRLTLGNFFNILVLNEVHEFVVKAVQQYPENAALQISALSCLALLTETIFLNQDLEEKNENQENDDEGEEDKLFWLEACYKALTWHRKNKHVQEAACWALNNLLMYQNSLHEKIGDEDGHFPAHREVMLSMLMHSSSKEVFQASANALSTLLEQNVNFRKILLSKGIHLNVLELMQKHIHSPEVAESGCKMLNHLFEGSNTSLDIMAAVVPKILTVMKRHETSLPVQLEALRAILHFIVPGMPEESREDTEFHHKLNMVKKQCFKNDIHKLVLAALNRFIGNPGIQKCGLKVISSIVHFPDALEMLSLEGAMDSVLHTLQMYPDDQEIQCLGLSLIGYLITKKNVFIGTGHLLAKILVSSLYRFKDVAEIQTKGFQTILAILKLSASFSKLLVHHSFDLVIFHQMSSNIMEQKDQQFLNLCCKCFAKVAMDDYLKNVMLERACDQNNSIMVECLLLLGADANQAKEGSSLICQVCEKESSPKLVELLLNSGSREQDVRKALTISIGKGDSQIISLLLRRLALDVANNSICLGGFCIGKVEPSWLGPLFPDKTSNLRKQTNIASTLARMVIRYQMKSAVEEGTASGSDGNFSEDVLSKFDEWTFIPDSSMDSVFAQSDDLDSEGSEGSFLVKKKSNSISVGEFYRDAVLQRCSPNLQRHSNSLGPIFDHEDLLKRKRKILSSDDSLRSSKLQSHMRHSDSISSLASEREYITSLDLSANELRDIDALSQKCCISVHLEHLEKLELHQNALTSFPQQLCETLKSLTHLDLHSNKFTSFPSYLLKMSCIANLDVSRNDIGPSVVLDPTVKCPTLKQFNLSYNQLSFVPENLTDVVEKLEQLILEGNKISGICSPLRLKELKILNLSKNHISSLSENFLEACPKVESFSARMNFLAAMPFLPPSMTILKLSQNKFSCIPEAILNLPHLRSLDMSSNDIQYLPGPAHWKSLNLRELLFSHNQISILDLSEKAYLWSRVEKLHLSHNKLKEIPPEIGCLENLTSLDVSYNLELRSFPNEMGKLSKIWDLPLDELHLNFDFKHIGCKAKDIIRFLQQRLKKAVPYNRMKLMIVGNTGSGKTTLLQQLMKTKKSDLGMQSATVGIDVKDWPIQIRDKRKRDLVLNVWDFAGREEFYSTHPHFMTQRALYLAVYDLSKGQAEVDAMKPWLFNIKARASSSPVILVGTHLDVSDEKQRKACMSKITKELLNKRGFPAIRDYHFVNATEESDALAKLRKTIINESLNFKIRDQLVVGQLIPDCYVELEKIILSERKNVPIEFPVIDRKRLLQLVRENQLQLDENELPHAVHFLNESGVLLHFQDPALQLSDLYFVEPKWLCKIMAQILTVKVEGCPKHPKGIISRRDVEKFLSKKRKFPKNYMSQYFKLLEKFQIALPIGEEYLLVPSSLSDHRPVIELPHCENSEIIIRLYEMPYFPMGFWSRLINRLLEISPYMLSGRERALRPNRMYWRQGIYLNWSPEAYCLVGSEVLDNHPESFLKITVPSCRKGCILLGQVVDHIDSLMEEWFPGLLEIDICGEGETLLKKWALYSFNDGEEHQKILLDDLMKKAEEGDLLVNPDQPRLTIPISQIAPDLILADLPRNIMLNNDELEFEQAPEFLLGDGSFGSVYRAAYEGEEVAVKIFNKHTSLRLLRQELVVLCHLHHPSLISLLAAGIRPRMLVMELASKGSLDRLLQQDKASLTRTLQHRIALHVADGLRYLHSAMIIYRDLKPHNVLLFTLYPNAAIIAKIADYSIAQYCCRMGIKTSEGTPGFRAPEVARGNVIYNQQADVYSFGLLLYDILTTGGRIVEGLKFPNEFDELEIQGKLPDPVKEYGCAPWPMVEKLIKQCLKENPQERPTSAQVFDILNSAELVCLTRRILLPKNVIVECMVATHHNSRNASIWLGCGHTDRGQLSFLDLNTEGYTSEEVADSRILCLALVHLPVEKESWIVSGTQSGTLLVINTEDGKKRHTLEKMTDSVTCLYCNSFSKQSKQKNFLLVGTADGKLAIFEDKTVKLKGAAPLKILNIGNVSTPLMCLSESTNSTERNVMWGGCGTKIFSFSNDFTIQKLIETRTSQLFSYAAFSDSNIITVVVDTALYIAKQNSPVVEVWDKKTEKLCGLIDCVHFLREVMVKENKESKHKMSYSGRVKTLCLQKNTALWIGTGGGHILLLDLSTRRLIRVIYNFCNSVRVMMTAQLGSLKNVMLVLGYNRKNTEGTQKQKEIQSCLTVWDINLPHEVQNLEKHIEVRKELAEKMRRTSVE
Experimental: (§1) The inhibitory activities of the compounds were measured at a 3-fold concentration gradient starting from a maximum compound concentration of […], and the values measured using the Kinase HotSpot service (Reaction Biology Corporation) are indicated by an asterisk (*).
(§2) All the experimental methods were performed as provided by the Kinase HotSpot Customer Protocol (http://www.reactionbiology.com//Kinase_Assay_Protocol).

[2] = system: MDA-MB-468 cell line; test: Inhibition of proliferation of MDA-MB-468 cancer cells (Cell Titer-Glo); assay type: cell-based; conditions: Homo sapiens, MDA-MB-468, 72 hours
Method in brief: (§3)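 Cells seeded at 2,000/well and exposed 72 h to 11 concentrations of compound (3-fold dilutions, final 10.000000 down to 0.000169 μM) in DMEM or RPMI. Viability read by Cell Titer-Glo luminescence after 10 min at room temperature; GI50 calculated from luminescence.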

[3] = target: LRRK2 (Homo sapiens, UniProt Q5S007); test: Kinase HotSpot service (Reaction Biology Corporation), LRRK2; assay type: biochemical; design: purchased DiscoverX Corp. (ScanMAX Kinase analysis panel, service); conditions: ATP 10 uM, read-out: LRRK2 IC50 (values indicated by *)
Sequence of LRRK2 (Q5S007 whole entry): as the sequence (Q5S007 whole entry G2019S) above, with S2019G counted along it
Experimental: as §1, §2

[4] = target: DYRK1 (Homo sapiens, UniProt Q13627); test: Kinase HotSpot service (Reaction Biology Corporation), DYRK1; assay type: biochemical; conditions: ATP 10 uM, read-out: DYRK1 IC50 (values indicated by *)
Experimental: as §1, §2

[5] = system: human DYRK1A and tau; test: Inhibition of tau phosphorylation, ClariCELL Kinase Cell-Based Assay, HEK 293 cells expressing human DYRK1A and tau; conditions: for inhibition at 1 µM: HEK293, read-out: % inhibition at 1 uM, tau phosphorylation, compound 1 uM; for inhibition at 0.25 µM / inhibition at 0.5 µM: HEK293, tau phosphorylation; for inhibition at 0.25 µM: compound 0.25 uM; for inhibition at 0.5 µM: compound 0.5 uM
Method in brief: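 Cell-based service assay: HEK 293 cells transiently expressing human DYRK1A and tau were treated with compound and lysed. Released tau was plate-captured and its phosphorylation quantified by ELISA with a phospho-tau-specific antibody.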

[6] = target: T1, TTK (Homo sapiens, UniProt P33981); test: TTK enzyme inhibition, ADP-Glo kinase assay; assay type: biochemical; design: purchased SignalChem T20-10G; conditions: ATP 5 μM
T1 sequence (P33981 1-857): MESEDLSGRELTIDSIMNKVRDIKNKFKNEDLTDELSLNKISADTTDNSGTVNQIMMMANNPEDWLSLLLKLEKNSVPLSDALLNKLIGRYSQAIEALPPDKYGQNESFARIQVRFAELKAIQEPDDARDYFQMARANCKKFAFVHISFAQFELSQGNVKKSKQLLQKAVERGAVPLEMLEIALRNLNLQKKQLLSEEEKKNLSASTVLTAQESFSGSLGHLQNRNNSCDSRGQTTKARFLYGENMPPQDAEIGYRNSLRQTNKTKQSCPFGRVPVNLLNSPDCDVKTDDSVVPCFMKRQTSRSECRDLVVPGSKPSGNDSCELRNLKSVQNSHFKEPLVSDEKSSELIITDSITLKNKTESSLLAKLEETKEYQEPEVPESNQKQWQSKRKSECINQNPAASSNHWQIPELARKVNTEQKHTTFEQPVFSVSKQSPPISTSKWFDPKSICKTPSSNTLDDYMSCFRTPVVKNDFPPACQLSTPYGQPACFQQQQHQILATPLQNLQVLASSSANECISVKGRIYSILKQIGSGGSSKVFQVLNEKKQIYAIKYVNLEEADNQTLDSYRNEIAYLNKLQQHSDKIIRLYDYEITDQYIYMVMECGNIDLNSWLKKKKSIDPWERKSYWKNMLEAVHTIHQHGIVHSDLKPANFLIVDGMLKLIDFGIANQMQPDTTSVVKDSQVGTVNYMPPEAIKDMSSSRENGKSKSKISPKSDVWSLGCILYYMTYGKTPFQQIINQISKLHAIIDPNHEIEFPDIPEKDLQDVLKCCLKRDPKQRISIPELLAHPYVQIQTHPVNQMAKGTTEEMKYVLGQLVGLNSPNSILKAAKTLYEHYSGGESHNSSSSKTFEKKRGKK
Experimental: To evaluate an inhibitory activity of the compound according to the present invention against LRRK2, LRRK2 (G2019S), DYRK1, CLK1, and TTK kinases, experiments were performed as follows.
Each of the Example compounds was reacted with a purified human TTK (SignalChem #T20-10G) enzyme to evaluate an ability to inhibit an enzyme using a method as described below. A composition of 40 mM Tris-HCl (pH 7.4), 20 mM MgCl2, 0.1 mg/mL BSA (a 5× kinase buffer, SignalChem #K03-09), and 50 μM DTT (SignalChem #D86-09B) was used as a reaction buffer, and all reactions of test substances were performed in the reaction buffer. Each of the compounds was diluted […] from a 10 mM DMSO stock using a serial dilution method, and enzyme activities were measured at final compound concentrations of 1, 0.333333, 0.111111, 0.037037, 0.012346, 0.004115, 0.001372, 0.000457, 0.000152, 0.000051, and 0.000017 μM. In the test, purified ATP (5 μM, Promega #V6930) and an MBP enzyme substrate (0.2 μg, SignalChem M42-51N) were reacted with a human TTK (7.5 ng) enzyme at 25° C. for 4 hours, and the enzyme activities were then determined using an in vitro ADP-Glo™ kinase assay (Promega #V6930). An enzyme-activity reaction solution, an ADP-Glo reaction solution, and an enzyme-ability detection solution were reacted at a ratio of 2:2:1 to measure a degree of inhibition of the enzyme activity with luminescence. The degree of inhibition of the enzyme activity according to the treatment concentration of each of the compounds was calculated based on the fluorescence of the enzyme activity of the solvent control which was not treated with the compound. In this case, the concentration of each of the compounds inhibiting 50% of the enzyme activity was determined to be an IC50 (nM) value, and calculated using Prism (Version 8.2 GraphPad) software.

[7] = target: T2, CLK1 (Homo sapiens, UniProt P49759); test: Kinase HotSpot service (Reaction Biology Corporation), CLK1; assay type: biochemical; conditions: ATP 10 uM, read-out: CLK1 IC50 (values indicated by *)
T2 construct: purchased DiscoverX Corp. (ScanMAX Kinase analysis panel, service)
T2 sequence (P49759 whole entry): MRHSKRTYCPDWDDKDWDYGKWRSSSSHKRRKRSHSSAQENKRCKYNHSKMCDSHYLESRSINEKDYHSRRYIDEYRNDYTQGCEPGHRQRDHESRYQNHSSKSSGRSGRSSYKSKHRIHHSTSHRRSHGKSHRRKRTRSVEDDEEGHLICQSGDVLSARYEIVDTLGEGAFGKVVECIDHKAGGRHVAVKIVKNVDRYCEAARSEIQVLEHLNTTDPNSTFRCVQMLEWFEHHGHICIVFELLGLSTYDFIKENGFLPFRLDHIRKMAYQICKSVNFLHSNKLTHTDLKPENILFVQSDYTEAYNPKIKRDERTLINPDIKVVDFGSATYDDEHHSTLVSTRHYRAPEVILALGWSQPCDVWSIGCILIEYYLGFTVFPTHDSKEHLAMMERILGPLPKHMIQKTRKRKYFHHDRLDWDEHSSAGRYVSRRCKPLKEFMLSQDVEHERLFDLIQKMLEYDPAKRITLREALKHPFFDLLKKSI
Experimental: as §1, §2

[8] = system: IL-6; test: Inhibition of LPS-induced IL-6 secretion of THP-1 monocytes (ELISA); assay type: cell-based, human; conditions: Homo sapiens, THP-1; compound 0.5 μM, LPS 500 ng/mL, 24 hours; read-out: THP1/IL6 (% inhib)
Experimental: To evaluate an inhibitory effect on cytokine secretion of monocytes, THP-1 cells (ATCC, #TIB-202) as a human-derived monocyte line were cultured in an RPMI-1640 (Hyclone, SH30027.01) medium supplemented with 10% fetal bovine serum (Hyclone, SH30084.03), 1% penicillin streptomycin (Welgene, LS202-02), and 50 μM 2-mercaptoethanol (Gibco, #21985023). In the test, the cells were seeded in a 48-well plate (SPL, #30048) at a density of 1.5 to 2×10^5 cells/250 μL per well, and cultured at 37° C. for 16 hours in a 5% CO2 incubator. Thereafter, the compound was diluted with DMSO so that the final concentration of the compound was 0.5 μM. Then, the cells were treated with the diluted compound before an hour of treatment with lipopolysaccharides (LPS) (Sigma, #L6529). After the treatment with the compound, the cells were treated with LPS so that the final concentration was 500 ng/mL. Then, a cell culture broth was collected after 24 hours of culture, and levels of cytokine IL-6 (R&D Systems, #D6050) and TNF-α (R&D Systems, #DTA00D) comprised in the culture broth were measured using respective ELISA kits. After an experiment was performed according to the manufacturer's guidelines, cell analysis was performed by measuring the optical density at 450 nm using a microplate reader.

[9] = system: MDA-MB-231 cell line; test: Inhibition of proliferation of MDA-MB-231 cancer cells (Cell Titer-Glo); assay type: cell-based; conditions: Homo sapiens, 72 hours
Method in brief: as §3

SMILES | IC50 [1] | GI50 [2] | IC50 [3] | IC50 [4] | inhibition at 1 µM [5] | inhibition at 0.25 µM [5] | inhibition at 0.5 µM [5] | IC50 [6] | IC50 [7] | inhibition at 0.5 µM [8] | GI50 [9]
O=C(c1ccc(Nc2nc(C3CC3)c3c(C(F)(F)F)c[nH]c3n2)c2c1OCCO2)N1CCOCC1 [Example 227, (8-((4-cyclopropyl-5-(trifluoromethyl)-7H-pyrrolo[2,3-d]pyrimidin-2-yl)amino)-2,3-dihydrobenzo[b][1,4]dioxin-5-yl)(morpholino)methanone] | < 0.1 µM | 301 to 1000 nM | < 0.1 µM | < 0.1 µM | 32.7% | 7.4% | 22.8% | 0.101 to 0.3 µM | < 0.1 µM | – | –
O=C(c1ccc(Nc2nc(C3CC3)c3c(C(F)(F)F)c[nH]c3n2)c2c1CCO2)N1CC[C@H](N2CCOCC2)C1 [Example 472] | – | 301 to 1000 nM | < 0.1 µM | < 0.1 µM | 56.5% | 23.6% | 36.5% | < 0.1 µM | < 0.1 µM | 31.5% | –
COc1cc(S(=O)(=O)N2CCOCC2)ccc1Nc1nc(C2CC2)c2c(C(F)(F)F)c[nH]c2n1 [Example 225, 4-cyclopropyl-N-(2-methoxy-4-(morpholinosulfonyl)phenyl)-5-(trifluoromethyl)-7H-pyrrolo[2,3-d]pyrimidin-2-amine] | < 0.1 µM | 301 to 1000 nM | < 0.1 µM | < 0.1 µM | 29.9% | 1% | -2.5% | < 0.1 µM | < 0.1 µM | – | 301 to 1000 nM
